Results as given in DBAASP.
≈ marks a conversion by molar mass, not a printed value. One block for each compound: values may come before it.

Tests used:
Test in all cases: ≥ marks a high value that may be exact or a test limit, other limits are often not marked, values filed in µg/mL are converted to µM
[1] = tested on: Klebsiella pneumoniae ATCC 13883
Klebsiella pneumoniae = tested on: Klebsiella pneumoniae
[2] = tested on: Staphylococcus aureus ATCC 25923
Staphylococcus aureus = tested on: Staphylococcus aureus
[3] = tested on: Bacillus subtilis ATCC 23857
[4] = tested on: Escherichia coli ATCC 25922
[5] = tested on: Acinetobacter baumannii ATCC 19606
[6] = tested on: Enterococcus faecalis ATCC 29212
[7] = tested on: Klebsiella pneumoniae ATCC 700603
[8] = tested on: Pseudomonas aeruginosa ATCC 27853
[9] = tested on: Staphylococcus epidermidis ATCC 12228
Bacillus subtilis = tested on: Bacillus subtilis
Escherichia coli = tested on: Escherichia coli
Salmonella typhimurium = tested on: Salmonella typhimurium
Micrococcus luteus = tested on: Micrococcus luteus
Proteus mirabilis = tested on: Proteus mirabilis
Pseudomonas aeruginosa = tested on: Pseudomonas aeruginosa
Shigella dysenteriae = tested on: Shigella dysenteriae
[10] = tested on: Staphylococcus epidermidis
[11] = tested on: Pseudomonas aeruginosa ATCC 9027
[12] = tested on: Staphylococcus aureus ATCC 29213
Acinetobacter baumannii = tested on: Acinetobacter baumannii
[13] = tested on: Candida albicans ATCC 10231

MIC [1]: 3 µM (≈ 4.82 µg/mL)
MIC (Klebsiella pneumoniae): 3 µM (≈ 4.82 µg/mL)
MIC [2]: 6.25 µM (≈ 10 µg/mL)
MIC (Staphylococcus aureus): 3 µM (≈ 4.82 µg/mL)
Structure (SMILES): CC[C@H](C)[C@H](N)C(=O)N[C@@H](CC(N)=O)C(=O)N[C@@H](CC(C)C)C(=O)N[C@@H](CCCCN)C(=O)N[C@H](C(=O)N[C@@H](CC(C)C)C(=O)N[C@@H](C)C(=O)N[C@@H](CCCN=C(N)N)C(=O)N[C@@H](CC(C)C)C(=O)N[C@@H](C)C(=O)N[C@@H](CCCCN)C(=O)N[C@@H](CCCCN)C(=O)N[C@H](C(=O)N[C@@H](CC(C)C)C(N)=O)[C@@H](C)CC)[C@@H](C)CC [INLKILARLAKKIL]

MIC [3]: ≥ 32 µM
MIC [4]: 128 µM (≈ 182 µg/mL)
Structure (SMILES): CC[C@H](C)[C@H](NC(=O)CN)C(=O)N[C@@H](CCCN=C(N)N)C(=O)N[C@@H](CCCN=C(N)N)C(=O)NCC(=O)N[C@H](C(=O)N[C@H](C(=O)N[C@@H](CCCCN)C(=O)N[C@H](C(=O)N[C@H](C(=O)N[C@@H](CCCCN)C(=O)N[C@@H](CCCN=C(N)N)C(N)=O)[C@@H](C)CC)[C@@H](C)CC)[C@@H](C)CC)[C@@H](C)CC [GIRRGIIKIIKR]

MIC [5]: > 512 µM
MIC [3]: ≥ 32 µM
MIC [6]: > 512 µM
MIC [4]: 256 µM (≈ 285 µg/mL)
MIC [7]: 256 µM (≈ 285 µg/mL)
MIC [8]: 64 µM (≈ 71.1 µg/mL)
MIC [2]: 256 µM (≈ 285 µg/mL)
MIC [9]: 64 µM (≈ 71.1 µg/mL)
Structure (SMILES): CC(C)C[C@H](NC(=O)CN)C(=O)N[C@@H](CC(C)C)C(=O)N[C@@H](CCCCN)C(=O)N[C@@H](CCCN=C(N)N)C(=O)N[C@@H](CC(C)C)C(=O)N[C@@H](CCCCN)C(=O)N[C@H](C(=O)N[C@@H](CC(C)C)C(=O)N[C@@H](C)C(N)=O)[C@@H](C)O [GLLKRLKTLA]

MIC (Bacillus subtilis): 2 µM (≈ 3.87 µg/mL)
MIC (Escherichia coli): 4 µM (≈ 7.75 µg/mL)
MIC (Salmonella typhimurium): 2 µM (≈ 3.87 µg/mL)
MIC (Staphylococcus aureus): 4 µM (≈ 7.75 µg/mL)
Structure (SMILES): CC(C)[C@H](NC(=O)CNC(=O)[C@H](CCCN=C(N)N)NC(=O)[C@@H](NC(=O)[C@H](Cc1c[nH]c2ccccc12)NC(=O)[C@@H](NC(=O)[C@H](CCCN=C(N)N)NC(=O)CNC(=O)[C@H](Cc1c[nH]c2ccccc12)NC(=O)[C@H](CCCN=C(N)N)NC(=O)[C@@H](NC(=O)[C@@H](NC(=O)[C@@H](NC(=O)CN)C(C)C)C(C)C)C(C)C)C(C)C)C(C)C)C(=O)N[C@@H](CCCN=C(N)N)C(=O)N[C@@H](CCCN=C(N)N)C(N)=O [GVVVRWGRVWVRGVRR]

MIC (Bacillus subtilis): 19 µM (≈ 25 µg/mL)
MIC (Escherichia coli): 38 µM (≈ 50 µg/mL)
MIC (Klebsiella pneumoniae): 76 µM (≈ 100 µg/mL)
MIC (Micrococcus luteus): ≥ 152 µM
MIC (Proteus mirabilis): ≥ 152 µM
MIC (Pseudomonas aeruginosa): 152 µM (≈ 200 µg/mL)
MIC (Salmonella typhimurium): ≥ 152 µM
MIC (Shigella dysenteriae): ≥ 152 µM
MIC (Staphylococcus aureus): 9.49 µM (≈ 12.5 µg/mL)
MIC [10]: ≥ 38 µM
Structure (SMILES): CC(C)C[C@H](NC(=O)[C@@H](NC(=O)[C@H](CCCCN)NC(=O)[C@H](CO)NC(=O)[C@H](C)NC(=O)[C@@H](NC(=O)[C@H](CCCCN)NC(=O)[C@H](Cc1ccccc1)NC(=O)[C@H](CC(C)C)NC(=O)[C@H](C)NC(=O)CNC(=O)[C@H](CC(C)C)NC(=O)[C@H](C)N)C(C)C)C(C)C)C(=O)O [ALGALFKVASKVL]

MIC [3]: 8 µM (≈ 11.6 µg/mL)
MIC [4]: 16 µM (≈ 23.2 µg/mL)
MIC [7]: 64 µM (≈ 92.9 µg/mL)
MIC [11]: 16 µM (≈ 23.2 µg/mL)
MIC [2]: 128 µM (≈ 186 µg/mL)
Structure (SMILES): CC[C@H](C)[C@H](NC(=O)[C@H](CCCCN)NC(=O)[C@H](CCCCN)NC(=O)[C@H](C)NC(=O)[C@@H](NC(=O)[C@H](C)NC(=O)[C@H](CC(C)C)NC(=O)[C@H](CC(C)C)NC(=O)[C@H](CCCCN)NC(=O)[C@H](CCCCN)NC(=O)[C@H](CC(C)C)NC(=O)[C@H](CC(N)=O)NC(=O)[C@@H](N)CC(C)C)C(C)C)C(N)=O [LNLKKLLAVAKKI]

MIC [5]: 16 µM (≈ 24.3 µg/mL)
MIC [3]: 4 µM (≈ 6.08 µg/mL)
MIC [6]: 16 µM (≈ 24.3 µg/mL)
MIC [4]: 16 µM (≈ 24.3 µg/mL)
MIC [7]: 16 µM (≈ 24.3 µg/mL)
MIC [8]: 8 µM (≈ 12.2 µg/mL)
MIC [2]: 8 µM (≈ 12.2 µg/mL)
MIC [9]: 4 µM (≈ 6.08 µg/mL)
Structure (SMILES): C[C@@H](O)[C@H](NC(=O)[C@H](CCCCN)NC(=O)[C@H](Cc1c[nH]c2ccccc12)NC(=O)[C@H](CCCN=C(N)N)NC(=O)[C@H](CCCCN)NC(=O)[C@H](Cc1c[nH]c2ccccc12)NC(=O)[C@H](Cc1c[nH]c2ccccc12)NC(=O)CN)C(=O)N[C@@H](Cc1c[nH]c2ccccc12)C(=O)N[C@@H](Cc1c[nH]c2ccccc12)C(N)=O [GWWKRWKTWW]

MIC [5]: > 64 µM
MIC [6]: > 64 µM
MIC [4]: > 64 µM
MIC [12]: > 64 µM
Structure (SMILES): CC[C@H](C)[C@H](NC(=O)[C@H](Cc1cnc[nH]1)NC(=O)[C@H](CCCN=C(N)N)NC(=O)[C@H](CC(C)C)NC(=O)[C@H](CC(N)=O)NC(=O)[C@@H](N)CC(N)=O)C(=O)N[C@H](C(=O)N[C@@H](C)C(=O)N[C@@H](Cc1c[nH]c2ccccc12)C(=O)N[C@H]1CSSC[C@@H](C(=O)N[C@@H](C)C(=O)N[C@@H](CCCN=C(N)N)C(=O)N[C@@H](Cc2ccccc2)C(=O)N[C@@H](CCCCN)C(=O)N2CCC[C@H]2C(=O)N[C@@H](CCC(N)=O)C(=O)O)NC(=O)[C@H](C(C)C)NC(=O)[C@H](C)NC(=O)[C@H](CC(C)C)NC(=O)[C@H](CO)NC(=O)[C@H](Cc2ccc(O)cc2)NC(=O)[C@H](CC(N)=O)NC(=O)[C@H](CCCN=C(N)N)NC(=O)[C@H](CC(N)=O)NC(=O)[C@H](CCCCN)NC1=O)C(C)C [NNLRHIVAWCKNRNYSLAVCARFKPQ]

MIC (Bacillus subtilis): ≥ 39.9 µM
MIC (Escherichia coli): 79.8 µM (≈ 100 µg/mL)
MIC (Klebsiella pneumoniae): 79.8 µM (≈ 100 µg/mL)
MIC (Micrococcus luteus): ≥ 79.8 µM
MIC (Proteus mirabilis): ≥ 160 µM
MIC (Pseudomonas aeruginosa): > 160 µM
MIC (Salmonella typhimurium): ≥ 160 µM
MIC (Shigella dysenteriae): ≥ 160 µM
MIC (Staphylococcus aureus): 19.9 µM (≈ 25 µg/mL)
MIC [10]: ≥ 79.8 µM
Structure (SMILES): CC(C)C[C@H](NC(=O)[C@H](C)NC(=O)CNC(=O)[C@H](Cc1c[nH]c2ccccc12)NC(=O)[C@@H](N)Cc1ccccc1)C(=O)N[C@@H](Cc1ccccc1)C(=O)N[C@@H](CCCCN)C(=O)N[C@H](C(=O)N[C@@H](C)C(=O)N[C@@H](CO)C(=O)N[C@@H](CCCCN)C(=O)O)C(C)C [FWGALFKVASK]

MIC [5]: 1.01 µM (≈ 2 µg/mL)
MIC (Acinetobacter baumannii): 1.01 µM (≈ 2 µg/mL)
MIC [13]: 2.03 µM (≈ 4 µg/mL)
MIC [4]: 1.01 µM (≈ 2 µg/mL)
MIC [8]: 0.507 µM (≈ 1 µg/mL)
MIC (Pseudomonas aeruginosa): 2.03 µM (≈ 4 µg/mL)
MIC [2]: 0.507 µM (≈ 1 µg/mL)
Structure (SMILES): CC(C)C[C@H](NC(=O)[C@H](Cc1ccc(O)cc1)NC(=O)[C@H](CCCCN)NC(=O)[C@H](Cc1ccccc1)NC(=O)[C@H](CC(C)C)NC(=O)[C@H](CCCN=C(N)N)NC(=O)[C@H](CCCCN)NC(=O)[C@H](Cc1ccccc1)NC(=O)[C@H](CC(C)C)NC(=O)[C@H](CCCN=C(N)N)NC(=O)[C@@H](N)CCCCN)C(=O)N[C@@H](CCCN=C(N)N)C(=O)N[C@@H](CCCN=C(N)N)C(=O)N[C@@H](Cc1ccccc1)C(=O)O [KRLFKRLFKYLRRF]

MIC [3]: ≥ 128 µM
MIC [4]: > 128 µM
Structure (SMILES): CC[C@H](C)[C@H](NC(=O)CNC(=O)[C@H](CCCN=C(N)N)NC(=O)[C@H](CCCCN)NC(=O)[C@@H](NC(=O)CNC(=O)[C@H](CCCN=C(N)N)NC(=O)[C@H](CCCCN)NC(=O)[C@@H](NC(=O)CN)[C@@H](C)CC)[C@@H](C)CC)C(=O)N[C@@H](CCCCN)C(=O)N[C@@H](CCCN=C(N)N)C(N)=O [GIKRGIKRGIKR]

MIC (Acinetobacter baumannii): 25 µM (≈ 45.6 µg/mL)
MIC [4]: > 25 µM
MIC [7]: > 25 µM
MIC [11]: > 25 µM
MIC [2]: > 25 µM
Structure (SMILES): CC[C@H](C)[C@H](NC(=O)[C@H](CC(C)C)NC(=O)[C@H](CCC(N)=O)NC(=O)[C@@H](NC(=O)[C@H](CC(C)C)NC(=O)[C@H](CCCN=C(N)N)NC(=O)[C@H](CCCN=C(N)N)NC(=O)[C@@H](NC(=O)[C@H](C)NC(=O)[C@H](CCCCN)NC(=O)[C@H](CCCN=C(N)N)NC(=O)[C@H](CC(C)C)NC(=O)[C@@H](NC(=O)[C@H](C)NC(=O)[C@@H](NC(=O)[C@H](C)N)[C@@H](C)O)[C@@H](C)CC)[C@@H](C)O)C(C)C)C(=O)O [ATAILRKATRRLVQLI]

MIC [3]: ≥ 128 µM
MIC [4]: > 128 µM
Structure (SMILES): CC[C@H](C)[C@H](NC(=O)[C@H](CCCCN)NC(=O)[C@@H](NC(=O)[C@@H](NC(=O)[C@H](CCCCN)NC(=O)[C@@H](NC(=O)[C@@H](NC(=O)CNC(=O)[C@H](C)NC(=O)[C@@H](NC(=O)[C@@H](NC(=O)CN)[C@@H](C)CC)[C@@H](C)CC)[C@@H](C)CC)[C@@H](C)CC)[C@@H](C)CC)[C@@H](C)CC)C(N)=O [GIIAGIIKIIKI]
